Our source for the EC50 values is patent US10968225B2, “Compounds and compositions for the treatment of cystic fibrosis” (Fondazione Istituto Italiano Di Tecnologia, priority 2017, dated 2021).

Each structure is given as a SMILES string. Where a name gives a salt, the structure may show the parent alone.

T1 sequence (P13569 with tags, fused parts or gaps DEL508-508): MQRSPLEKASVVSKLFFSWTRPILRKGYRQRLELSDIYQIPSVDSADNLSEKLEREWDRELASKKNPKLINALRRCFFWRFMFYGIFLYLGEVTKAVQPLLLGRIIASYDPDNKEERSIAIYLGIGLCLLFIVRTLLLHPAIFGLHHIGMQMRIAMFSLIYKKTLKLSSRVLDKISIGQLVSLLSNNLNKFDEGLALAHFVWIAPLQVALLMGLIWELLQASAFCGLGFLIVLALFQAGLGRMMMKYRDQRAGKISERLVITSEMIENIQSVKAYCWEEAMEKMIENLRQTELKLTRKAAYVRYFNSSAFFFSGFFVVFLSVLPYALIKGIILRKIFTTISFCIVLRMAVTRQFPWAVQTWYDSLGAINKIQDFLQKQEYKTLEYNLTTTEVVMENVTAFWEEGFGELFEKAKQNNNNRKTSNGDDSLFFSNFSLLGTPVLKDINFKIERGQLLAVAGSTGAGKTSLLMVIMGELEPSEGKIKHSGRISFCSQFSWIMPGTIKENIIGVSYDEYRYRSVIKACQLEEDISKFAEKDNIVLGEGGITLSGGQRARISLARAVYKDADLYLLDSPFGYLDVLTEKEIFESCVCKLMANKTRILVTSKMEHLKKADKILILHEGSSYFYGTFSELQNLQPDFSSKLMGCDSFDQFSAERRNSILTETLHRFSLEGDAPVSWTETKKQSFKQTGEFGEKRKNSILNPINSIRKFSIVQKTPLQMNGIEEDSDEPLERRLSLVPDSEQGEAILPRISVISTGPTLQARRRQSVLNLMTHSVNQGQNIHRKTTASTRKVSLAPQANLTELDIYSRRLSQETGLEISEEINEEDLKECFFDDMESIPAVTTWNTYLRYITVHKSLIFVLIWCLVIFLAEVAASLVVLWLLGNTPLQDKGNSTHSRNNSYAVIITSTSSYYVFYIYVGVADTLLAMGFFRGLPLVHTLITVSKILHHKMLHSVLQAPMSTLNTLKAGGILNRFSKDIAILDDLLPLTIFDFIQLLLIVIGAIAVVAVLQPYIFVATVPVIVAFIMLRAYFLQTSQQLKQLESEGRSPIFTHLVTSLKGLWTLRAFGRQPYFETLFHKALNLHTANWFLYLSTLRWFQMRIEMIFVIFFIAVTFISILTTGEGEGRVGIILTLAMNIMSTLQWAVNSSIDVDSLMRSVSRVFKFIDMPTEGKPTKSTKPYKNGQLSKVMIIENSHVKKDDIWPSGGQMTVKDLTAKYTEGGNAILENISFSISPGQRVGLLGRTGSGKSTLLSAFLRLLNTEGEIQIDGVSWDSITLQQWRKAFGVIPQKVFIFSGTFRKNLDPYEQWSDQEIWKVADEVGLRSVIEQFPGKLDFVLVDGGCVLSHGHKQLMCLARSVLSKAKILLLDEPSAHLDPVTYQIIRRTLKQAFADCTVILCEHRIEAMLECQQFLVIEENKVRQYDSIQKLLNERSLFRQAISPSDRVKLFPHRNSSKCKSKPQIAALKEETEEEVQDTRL

The assay concerns the target T1, mutant CFTR (Homo sapiens, UniProt P13569, DEL508-508).
T1 construct: expressed in transfected cells
Kind of assay: Fluorescence (HS-YFP) assay for CFTR activity, corrector assay. The settings on record: CFBE41o- and FRT cells with stable expression of mutant CFTR, read-out: activity (EC50). The class given is cell-based.
As to `Cc1nc2ncc(N(C)C(=O)c3cccc(-n4nc(C(F)(F)F)c5c4C(Oc4ccc(C(=O)O)cc4)COC5)c3)cc2o1` (racemic) [Compound 269, 4-[[1-[3-[Methyl-(2-methyloxazolo[4,5-b]pyridin-6-yl)carbamoyl]phenyl]-3-(trifluoromethyl)-6,7-dihydro-4H-pyrano[4,3-c]pyrazol-7-yl]oxy]benzoic acid], the EC50 (usually the concentration that produces a half-maximal response) was less than 1000 nM. For `CN(C(=O)c1cccc(-n2nc(C(F)(F)F)c3c2C(Oc2ccc(C(=O)O)cc2)COC3)c1)c1ccnc(OC(F)F)c1` (racemic) [Compound 270, 4-[[1-[3-[[2-(Difluoromethoxy)-4-pyridyl]-methyl-carbamoyl]phenyl]-3-(trifluoromethyl)-6,7-dihydro-4H-pyrano[4,3-c]pyrazol-7-yl]oxy]benzoic acid], the EC50 is less than 1000 nM. `CN(C(=O)c1cccc(-n2nc(C(F)(F)F)c3c2C(Oc2ccc(C(=O)O)cc2)CNC3)c1)c1ccc2c(c1)OC(F)(F)O2` (racemic) [Compound 273, 4-[[1-[3-[(2,2-Difluoro-1,3-benzodioxol-5-yl)-methyl-carbamoyl]phenyl]-3-(trifluoromethyl)-4,5,6,7-tetrahydropyrazolo[4,3-c]pyridin-7-yl]oxy]benzoic acid hydrochloride]: the EC50 was less than 1000 nM. `CN(C(=O)c1cccc(-n2nc(C(F)(F)F)c3c2C(Oc2ccc(C(=O)O)cc2)COC3)c1)c1cnc2c(c1)CCC2` (racemic) [Compound 281, 4-[[1-[3-[6,7-Dihydro-5H-cyclopenta[b]pyridin-3-yl(methyl)carbamoyl]phenyl]-3-(trifluoromethyl)-6,7-dihydro-4H-pyrano[4,3-c]pyrazol-7-yl]oxy]benzoic acid]: the EC50 lay in the range of 1000 to 2000 nM. Turning to `Cc1cc2ncc(N(C)C(=O)c3cccc(-n4nc(C(F)(F)F)c5c4C(Oc4ccc(C(=O)O)cc4)COC5)c3)cn2n1` (racemic) [Compound 294, 4-[[1-[3-[Methyl-(2-methylpyrazolo[1,5-a]pyrimidin-6-yl)carbamoyl]phenyl]-3-(trifluoromethyl)-6,7-dihydro-4H-pyrano[4,3-c]pyrazol-7-yl]oxy]benzoic acid], the 50% effective concentration (EC50) is less than 1000 nM.

`CN(C(=O)c1cccc(-n2nc(C(F)(F)F)c3c2C(Oc2ncc(C(=O)O)cn2)COC3)c1)c1ccc2c(c1)OC(F)(F)O2` (racemic) [Compound 295, 2-[[1-[3-[(2,2-Difluoro-1,3-benzodioxol-5-yl)-methyl-carbamoyl]phenyl]-3-(trifluoromethyl)-6,7-dihydro-4H-pyrano[4,3-c]pyrazol-7-yl]oxy]pyrimidine-5-carboxylic acid]: the EC50 lay in the range of 1000 to 2000 nM. Turning to `CN(C(=O)c1cccc(-n2nc(C(F)(F)F)c3c2C(Oc2ncc(C(=O)O)cn2)COC3)c1)c1ccc2c(c1)OCC2` (racemic) [Compound 296, 2-[[1-[3-[2,3-Dihydrobenzofuran-6-yl(methyl)carbamoyl]phenyl]-3-(trifluoromethyl)-6,7-dihydro-4H-pyrano[4,3-c]pyrazol-7-yl]oxy]pyrimidine-5-carboxylic acid], the concentration for a half-maximal effect (EC50) was less than 1000 nM. As for `Cc1nc2ccc(N(C)C(=O)c3cccc(-n4nc(C(F)(F)F)c5c4C(Oc4ncc(C(=O)O)cn4)COC5)c3)cc2o1` (racemic) [Compound 297], the EC50 was less than 1000 nM. `CN(C(=O)c1cccc(-n2nc(C(F)(F)F)c3c2C(Oc2ncc(C(=O)O)cn2)COC3)c1)c1cnc2c(c1)OCC2` (racemic) [Compound 300, 2-[[1-[3-[2,3-Dihydrofuro[3,2-b]pyridin-6-yl(methyl)carbamoyl]phenyl]-3-(trifluoromethyl)-6,7-dihydro-4H-pyrano[4,3-c]pyrazol-7-yl]oxy]pyrimidine-5-carboxylic acid]: the EC50 was less than 1000 nM. For `CN(C(=O)c1cccc(-n2nc(C(F)(F)F)c3c2C(n2cc(C(=O)O)ccc2=O)COC3)c1)c1ccc2c(c1)OC(F)(F)O2` (racemic) [Compound 301, (rac)-6-oxo-1-[1-[3-[(2,2-difluoro-1,3-benzodioxol-5-yl)-methyl-carbamoyl]phenyl]-3-(trifluoromethyl)-6,7-dihydro-4H-pyrano[4,3-c]pyrazol-7-yl]pyridine-3-carboxylic acid], the concentration for a half-maximal effect (EC50) lay within 1000 to 2000 nM. To `CN(C(=O)c1cccc(-n2nc(C(F)(F)F)c3c2C(Oc2ccc(C(=O)O)nn2)CCC3)c1)c1ccc2c(c1)OC(F)(F)O2` (racemic) [Compound 302, 6-[[1-[3-[(2,2-Difluoro-1,3-benzodioxol-5-yl)-methyl-carbamoyl]phenyl]-3-(trifluoromethyl)-4,5,6,7-tetrahydroindazol-7-yl]oxy]pyridazine-3-carboxylic acid] belongs greater than 2000 nM; to `CN(C(=O)c1cccc(-n2nc(C(F)(F)F)c3c2C(Oc2ccc(C(=O)O)cc2)CCC3)c1)c1ccc2c(c1)S(=O)(=O)CC2` (racemic) [Compound 303, 4-[[1-[3-[(1,1-Dioxo-2,3-dihydrobenzothiophen-6-yl)-methyl-carbamoyl]phenyl]-3-(trifluoromethyl)-4,5,6,7-tetrahydroindazol-7-yl]oxy]benzoic acid], greater than 2000 nM. To `CN(C(=O)c1cccc(-n2nc(C(F)(F)F)c3c2C(Oc2ncc(C(=O)O)cn2)COC3)c1)c1cnc2c(c1)CCC2` (racemic) [Compound 305, (rac)-2-[[1-[3-[6,7-dihydro-5H-cyclopenta[b]pyridin-3-yl(methyl)carbamoyl]phenyl]-3-(trifluoro-methyl)-6,7-dihydro-4H-pyrano[4,3-c]pyrazol-7-yl]oxy]pyrimidine-5-carboxylic acid] belongs less than 1000 nM; to `COc1ncc(N(C)C(=O)c2cccc(-n3nc(C(F)(F)F)c4c3C(Oc3ccc(C(=O)O)cc3)COC4)c2)cn1` (racemic) [Compound 306, 4-[[1-[3-[(2-Methoxypyrimidin-5-yl)-methyl-carbamoyl]phenyl]-3-(trifluoromethyl)-6,7-dihydro-4H-pyrano[4,3-c]pyrazol-7-yl]oxy]benzoic acid], 1000 to 2000 nM. With `CN(C(=O)c1cccc(-n2nc(C(F)(F)F)c3c2C(Oc2ccc(C(=O)O)cc2)CCC3)c1)c1cncc(F)c1` (racemic) [Compound 307, (rac)-4-[[1-[3-[(5-fluoro-3-pyridyl)methyl-carbamoyl]phenyl]-3-(trifluoromethyl)-4,5,6,7-tetrahydroindazol-7-yl]oxy]benzoic acid], the EC50 was greater than 2000 nM. Regarding `COc1cc(N(C)C(=O)c2cccc(-n3nc(C(F)(F)F)c4c3C(Oc3ccc(C(=O)O)cc3)CCC4)c2)ccc1F` (racemic) [Compound 308, 4-[[1-[3-[(4-Fluoro-3-methoxy-phenyl)-methyl-carbamoyl]phenyl]-3-(trifluoromethyl)-4,5,6,7-tetrahydroindazol-7-yl]oxy]benzoic acid], the EC50 was greater than 2000 nM.

With `CN(C(=O)c1cccc(-n2nc(C(F)(F)F)c3c2C(Oc2ccc(C(=O)O)cc2)CCC3)c1)c1cncc(Cl)c1` (racemic) [Compound 309, 4-[[1-[3-[(5-chloro-3-pyridyl)-methyl-carbamoyl]phenyl]-3-(trifluoromethyl)-4,5,6,7-tetrahydroindazol-7-yl]oxy]benzoic acid], the EC50 was greater than 2000 nM. On to `CN(C(=O)c1cccc(-n2nc(C(F)(F)F)c3c2C(Oc2ccc(C(=O)O)cc2)CCC3)c1)c1cncc(C#N)c1` (racemic) [Compound 310, 4-[[1-[3-[(5-Cyano-3-pyridyl)-methyl-carbamoyl]phenyl]-3-(trifluoromethyl)-4,5,6,7-tetrahydroindazol-7-yl]oxy]benzoic acid], for which the half-maximal effective concentration (EC50) is 1000 to 2000 nM.
